Experimental data from patent US8765798B2, “Peptide derivatives with therapeutic activity” (Flamma S.p.A., priority 2006, dated 2014).

Test: carbonyl-quenching activity on HNE in vitro (residual HNE by reversed-phase chromatography)
Settings: for reacted HNE (%) t = 1 h mean / reacted HNE (%) t = 3 h mean / reacted HNE (%) t = 2 h mean: HNE 50 μM, compound 1 mM, phosphate buffer 10 mM pH 7.4, 37° C.; for reacted HNE (%) t = 1 h mean: one hour incubation; for reacted HNE (%) t = 3 h mean: three hours incubation; for reacted HNE (%) t = 2 h mean: two hours incubation
Procedure: The pharmacological activity of the compounds of the invention was determined in vitro evaluating their carbonyl-quenching activity on 4-hydroxy nonenal (HNE), which is known to be involved in a number of pathologies.
The carbonyl-quenching activity of a selected series of compounds of the present invention was assessed in vitro, incubating HNE (50 μM) with the tested compounds (1 mM), in phosphate buffer (10 mM) pH 7.4 at 37° C. The activity was evaluated after one, two and three hours incubation, determining the residual content of HNE by reversed-phase chromatography as described by Aldini G et al. [Biochem Biophys Res Commun. 2002 Nov. 15; 298(5):699-706]. The carbonyl-quenching activity is expressed as the reacted HNE percent compared with the HNE content in the absence of the test compounds.

| Compound | reacted HNE (%) t = 1 h mean [%] | reacted HNE (%) t = 3 h mean [%] | reacted HNE (%) t = 2 h mean [%] | carbonyl-quenching activity compared with carnosine (after one hour incubation) |
| --- | --- | --- | --- | --- |
| NCCC(=O)N[C@@H](Cc1cnc[nH]1)C(=O)O [Carnosine, reference compound] | 17.39 | 43.59 | 31.65 |  |
| C[C@H](N)CC(=O)N[C@H](Cc1c[nH]cn1)C(=O)O [FL-926-A-002, (3S)-3-aminobutanoyl-D-histidine] | 6.568 | 21.58 | 14.26 |  |
| N[C@@H](Cc1ccccc1)[C@@H](O)C(=O)N[C@H](Cc1c[nH]cn1)C(=O)O [FL-926-A-005, (2R,3S)-3-amino-2-hydroxy-4-phenylbutanoyl-D-histidine] | 15.2 | 38.56 | 27.75 |  |
| N[C@@H](CC(=O)N[C@H](Cc1c[nH]cn1)C(=O)O)c1ccccc1 [FL-926-A-006, (3S)-3-amino-3-phenylpropanoyl-D-histidine] | 29.3 | 65.8531 | 50.7209 | almost twice as high |
